Data as given in patent US4960908A, “Isoflavone derivatives, salts thereof, and oncostatic and immunosuppressive agents” (Yamanouchi Pharmaceutical Co., Ltd., priority 1985, dated 1990).
pIC50: −log10 of the molar value. In brackets after ≈: the same amount, converted by molar mass. Structures can show the parent of a compound that is named as a salt.

Tests used:
[1] = system: antibody-forming cells (ovine erythrocytes immunization); assay: Immunosuppressive action: antibody-formation inhibition (hemolytic plaques, antibody-forming cells in the spleen); assay type: in vivo, male ddy mouse; details: abdominal injection, once a day over four days, mouse
Protocol: The spleen was taken out five days after immunization, and the number of antibody-formingcells contained in it was measured as follows according to the method of Cunningham [Cunningham A. J.: Nature, 207, 1106 (1965)]. The splenetic cells were suspended in Eagle's MEM (Nissui Pharmaceutical), ovine erythrocytes and guinea-pig complement were added to this suspension, the resulting mixture was put in a Cunningham chamber (with its both ends sealed with paraffin) and incubated at 37° C. for 90 minutes, and the number of hemolytic plaques (a) (the number of antibody-forming cells) was counted.
Similarly, the number of hemolytic plaques (b) was measured with a mouse not injected with the compound of this invention (control). The antibody-formation inhibition rate was calculated according to the following equation: [formula]

[2] = target: tyrosine-specific protein kinase derived from Rous sarcoma virus (src gene pp60^src) (Rous sarcoma virus (strain Schmidt-Ruppin A), UniProt P00524); assay: Inhibitory action against tyrosine-specific protein kinase activity; assay type: biochemical
tyrosine-specific protein kinase derived from Rous sarcoma virus (src gene pp60^src), sequence (P00524 2-526): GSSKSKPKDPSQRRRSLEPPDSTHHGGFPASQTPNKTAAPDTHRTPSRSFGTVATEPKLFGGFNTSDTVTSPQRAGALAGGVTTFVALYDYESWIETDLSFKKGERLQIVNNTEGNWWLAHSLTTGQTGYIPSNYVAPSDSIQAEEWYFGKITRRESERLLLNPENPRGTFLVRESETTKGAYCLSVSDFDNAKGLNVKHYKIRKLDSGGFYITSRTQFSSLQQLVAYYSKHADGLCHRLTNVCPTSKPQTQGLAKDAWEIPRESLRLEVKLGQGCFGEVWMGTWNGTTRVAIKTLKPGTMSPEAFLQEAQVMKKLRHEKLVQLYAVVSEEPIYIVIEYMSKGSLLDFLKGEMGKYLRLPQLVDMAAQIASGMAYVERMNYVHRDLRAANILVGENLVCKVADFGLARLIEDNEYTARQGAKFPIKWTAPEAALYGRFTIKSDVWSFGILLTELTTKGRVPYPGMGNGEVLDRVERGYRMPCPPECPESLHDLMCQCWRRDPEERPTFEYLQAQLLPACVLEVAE
Protocol: The inhibitory action against tyrosine-specific protein kinase activity of the compounds of this invention was measured according to the method described below using tyrosine-specific protein kinase derived from Rous sarcoma virus (src gene pp60^src).
Measurement of tyrosine-specific protein kinase activity (src gene pp60^src derived from Rous sarcoma virus) (refer to M. S. Colet, R. L. Ericson: Proceeding of the National Academy of Sciences of U.S.A., 75, 2021-2024, 1978).
3Y1 cells (fibroblasts derived from fetal rat kidney) transformed by Rous sarcome virus (RSV) were cultured, the cultured cells were collected and washed, RIPA buffer solution [containing 0.5% NP40, 0.1% sodium deoxycholate, 50 mM Tris-HCl (pH 7.2), 1 mM phenylmethylsulfonyl fluoride (PMSF) and 0.15M NaCl] was added to the collected cells, the mixture was allowed to stand at 0° C. for 30 minutes to effect solubilization, and the resulting mixture was centrifuged (100,000× g, 20 minutes). To the supernatant thus collected, was added antiserum obtained from a rabbit cancered by inoculation of RSV, the mixture was incubated at 0° C. for 30 to 60 minutes to cause pp60^src to react with antibody, and the immune complex was isolated by mixing with protein A/Sepharose-4B (Pharmacia) and washed with RIPA buffer. The total complex thus obtained (pp60^src /antibody/protein A/Sepharose-4B) was treated in a solution containing 20 mM Pipes/NaOH (pH 7.2), 5 mM MgCl2, 1 mM DTT and 10 μM [γ-^32 p]ATP (2 mCi/mMol) at 30° C. for five minutes to effect protein kinase reaction, which was terminated by addition a terminating solution containing SDS followed by boiling for three minutes. The reaction mixture was subjected to electrophoresis on 8% SDS/polyacrylamide gel and then to autoradiography, and the radioactivity of cut-out pp60^src band was measured on a liquid scintillation counter, thus quantifying the protein kinase reaction and calculating IC50 value.

RSV-3Y1 cells = assay: Inhibitory action against the growth of tumor cells (RSV-3Y1 cells); assay type: cell-based; details: Rattus norvegicus, live cells counted after 1, 2, 3 and 4 days using trypan blue, read-out: IC50, Inhibition against the growth of RSV-3Y1
Protocol: The inhibitory action of the compounds of this invention against the growth of tumor cells was examined by using cells of rats transformed by Rous sarcoma virus (RSV-3Y1 cells).
The inhibitory actions of the compounds of Examples 1 through 17 against the tyrosine-specific protein kinase activity and against the growth of RSV-3Y1 cells were measured according to the methods described earlier.

[3] = reported in J.A.C.S. (page 3447, 1951); cited from earlier work
[4] = 5 mg/Kg for each administration
[5] = 25 mg/Kg for each administration

CCOC(=O)C(=O)Oc1ccc(-c2c(C(=O)OCC)oc3cc(O)cc(O)c3c2=O)cc1 [Example 1, ethyl 4'-ethoxalyloxy-5,7-dihydroxy-2-isoflavonecarboxylate]
Antibody-formation inhibition rate ([1]; 1 mg/Kg for each administration): 14.4%
Antibody-formation inhibition rate [1, 4]: 28.7%
Antibody-formation inhibition rate [1, 5]: 40.0%
Antibody-formation inhibition rate ([1]; 50 mg/Kg for each administration): 75.8%
pIC50 [2]: 5.65
IC50 (RSV-3Y1 cells): > 100 µg/mL

COc1ccc(-c2c(CN(C)C)oc3cc(O)cc(O)c3c2=O)cc1 [Example 2, 2-(dimethylaminomethyl)-5,7-dihydroxy-4'-methoxyisoflavone hydrochloride]
pIC50 [2]: < 3.53
IC50 (RSV-3Y1 cells): 18 µg/mL

COc1ccc(-c2c(CNC3CCCCC3)oc3cc(O)cc(O)c3c2=O)cc1 [Example 3, 2-(Cyclohexylaminomethyl)-5,7-dihydroxy-4'-methoxyisoflavone hydrochloride]
pIC50 [2]: < 3.60
IC50 (RSV-3Y1 cells): 16 µg/mL

COc1ccc(-c2c(CNCCO)oc3cc(O)cc(O)c3c2=O)cc1.Cl [Example 4, 5,7-Dihydroxy-2-[(2-hydroxyethylamino)methyl]-4'-methoxyisoflavone hydrochloride]
pIC50 [2]: < 3.60
IC50 (RSV-3Y1 cells): > 100 µg/mL

O=c1c(-c2ccc(O)cc2)c(CN2CCCCC2)oc2cc(O)cc(O)c12 [Example 5, 4',5,7-trihydroxy-2-piperidinomethylisoflavone]
IC50 (RSV-3Y1 cells): 9.5 µg/mL (≈ 25.9 µM)

O=c1c(-c2ccc(O)cc2)c(CNC2=NCCS2)oc2cc(O)cc(O)c12 [Example 6, 4',5,7-Trihydroxy-2-[(2-thiazolin-2-ylamino)methyl]isoflavone]
pIC50 [2]: 4.41
IC50 (RSV-3Y1 cells): > 100 µg/mL

NC(=O)c1oc2cc(O)cc(O)c2c(=O)c1-c1ccc(O)cc1 [Example 7, 4',5,7-trihydroxy-2-isoflavonecarboxamide]
IC50 (RSV-3Y1 cells): > 100 µg/mL

CNC(=O)c1oc2cc(O)cc(O)c2c(=O)c1-c1ccc(O)cc1 [Example 8, 4',5,7-trihydroxy-N-methyl-2-isoflavonecarboxamide]
pIC50 [2]: 4.34
IC50 (RSV-3Y1 cells): > 100 µg/mL

O=C(NCCO)c1oc2cc(O)cc(O)c2c(=O)c1-c1ccc(O)cc1 [Example 9, 4',5,7-trihydroxy-N-(2-hydroxyethyl)-2-isoflavonecarboxamide]
pIC50 [2]: 4.38
IC50 (RSV-3Y1 cells): > 100 µg/mL

CSCc1oc2cc(O)cc(O)c2c(=O)c1-c1ccc(O)cc1 [Example 10, 4',5,7-trihydroxy-2-(methylthiomethyl)isoflavone]
IC50 (RSV-3Y1 cells): 20 µg/mL (≈ 60.5 µM)

O=c1c(-c2ccc(O)cc2)c(CSC2=NCCS2)oc2cc(O)cc(O)c12 [Example 11]
IC50 (RSV-3Y1 cells): 20 µg/mL (≈ 49.8 µM)

CCOC(=O)CSCc1oc2cc(O)cc(O)c2c(=O)c1-c1ccc(O)cc1 [Example 12, Ethyl [[(4',5,7-trihydroxy-2-isoflavonyl)methyl]thio]acetate]
Antibody-formation inhibition rate [1, 4]: 25.3%
Antibody-formation inhibition rate [1, 5]: 50.0%
IC50 (RSV-3Y1 cells): > 100 µg/mL

O=c1c(-c2ccc(O)cc2)c(CSCC(O)CO)oc2cc(O)cc(O)c12 (stereo not drawn) [Example 13, 2-[[(2,3-Dihydroxypropyl)thio]methyl]-4', 5,7-trihydroxyisoflavone]
Antibody-formation inhibition rate [1, 4]: 27.0%
Antibody-formation inhibition rate [1, 5]: 76.6%
pIC50 [2]: 4.99
IC50 (RSV-3Y1 cells): > 100 µg/mL

O=C(O)CCSCc1oc2cc(O)cc(O)c2c(=O)c1-c1ccc(O)cc1 [Example 14]
pIC50 [2]: 4.59
IC50 (RSV-3Y1 cells): 90 µg/mL (≈ 232 µM)

COC(=O)c1oc2cc(O)cc(O)c2c(=O)c1-c1ccc(O)cc1 [Example 15]
IC50 (RSV-3Y1 cells): 60 µg/mL (≈ 183 µM)

CC(C)OC(=O)c1oc2cc(O)cc(O)c2c(=O)c1-c1ccc(O)cc1 [Example 16, isopropyl 4',5,7-trihydroxy-2-isoflavonecarboxylate]
IC50 (RSV-3Y1 cells): 25 µg/mL (≈ 70.2 µM)

COCCOC(=O)c1oc2cc(O)cc(O)c2c(=O)c1-c1ccc(O)cc1 [Example 17, Methoxyethyl 4',5,7-trihydroxy-2-isoflavonecarboxylate]
pIC50 [2]: 4.79
IC50 (RSV-3Y1 cells): 60 µg/mL (≈ 161 µM)

O=c1c(-c2ccc(O)cc2)coc2cc(O)cc(O)c12 [genistein, 5,7,4'-trihydroxyisoflavone]
estrogenic action [3]: weak estrogenic action
